Experimental data: US20140196172A1, “Organelle Targeting Nanocarriers” (Her Majesty the Queen in Right of Canada, as Repre sented …, priority 2011, published 2014)

Key:
[1] = system: proplastids of triticale microspores; test: qRT-PCR of gfp mRNA, microspores transfected with pWCaadA16GFP; format: cell-based; settings: gfp reporter construct
Source text: (§1) FIG. 18 is a plot showing the level of expression (fold increase, average of 4 replicates) of GFP in triticale microspores transfected with the pWCaadA16GFP plasmid in the presence of cTP1 (SEQ ID NO: 6), cTP2 (SEQ ID NO: 7), cTP3 (SEQ ID NO: 8), cTP4 (SEQ ID NO: 9) or cTP5 (SEQ ID NO: 10) compared to the level of expression (fold increase) of the internal control elongation factor 1a (EF1a), as measured by quantitative real time PCR of mRNA levels;
(§2) Wheat chloroplast aadA16GFP reporter plasmid (pWCaadA16GFP, FIG. 12) is a 4212 base pair wheat specific plastid transformation vector, which targets insertions into the tml-tmA inverted repeat regions of the Triticum aestivum plastid genome at nucleotides 92850-93727 and 93794-94671 (GenBank accession No. AB042240.3). A multiple cloning site is introduced following the tml target insertion sequence. The selection marker gene is an organelle codon specific aad-gfp fusion gene, which facilitates a dual selection method of spectinomycin resistance through an aadA derivative and visual detection by GFP fluorescence (GenBank accession No. ABX39486; Khan and Maliga, Nat. Biotechnol. (1999 September) 17(9): 910-5). The selection marker gene is driven by the Triticum aestivum plastid genome promoter (psbA) at nucleotides 1282-1153 (GenBank accession No. AB042240.3). The aad-gfp fusion gene is terminated with the rice psbA terminator sequence derived from chloroplast transformation vector pVSR326 nucleotides 4014-4387 (GenBank accession No. AF527485.1).
The dsDNA construct (pWMaadA16GFP for mitochondrial expression or pWCaadA16GFP for expression in chloroplasts) is combined with the mTP (for mitochondrial expression) or cTP (for expression in chloroplasts) in the amounts used in the protoplast transformation experiments described above in a final volume of 100 μl of NBP-99 solution. The mixture is incubated for 10 minutes at room temperature, then incubated with isolated triticale microspores (500 μl, 10^6 microspores/ml, prepared as described in Example 2) for 1 h in the dark at room temperature. NBP-99 solution (500 μl) is added and the mixture is incubated in the dark for 24 h. The cells are imaged using confocal microscopy, as described in Example 2, using MitoTracker® Orange staining to visualize mitochondria.
Microspores are disrupted using a cleaned ceramic bead and aggressive shaking as the tissue is thawing. RLT buffer/B-Me (450 μl) is added and the sample is vortexed. The sample is heated at 55° C. for 1 minute and vortexed again. RNA is extracted using an RNeasy™ Plant Mini Kit (Qiagen), incorporating on-column DNase I digestion into the protocol. The final elution volume is 40 μl. RNA is assessed using both agarose gel […] (to ensure RNA is intact) and spectrophotometry (for quantification).
(§3) cDNA is generated using a First Strand Synthesis kit (Invitrogen). RNA (1 μg) is added to each sample and the manufacturer's protocol for synthesis followed, with the exception that the volume of the reaction mixture is increased from 20 μl to 30 μl. A negRT sample containing all reagents but no RNA is included in the cDNA synthesis as a negative control.
Standard curves are generated for both elongation factor 1a (EF1a) (internal control) and green fluorescent protein (GFP) (test) genes. […]
(§4) Real time PCR reactions are performed using QuantiTect™ SYBR™ Green PCR Master Mix (Qiagen) in a 20 μl reaction volume. […]

[2] = system: chloroplasts of triticale protoplasts; test: qRT-PCR of gfp mRNA, protoplasts transfected with pWCaadA16GFP; format: cell-based; settings: gfp reporter construct
Source text: as §1, with “20” for “18”, “protoplasts” for “microspores”, “levels.” for “levels;”
as §2
The dsDNA construct (pWMaadA16GFP for mitochondrial expression or pWCaadA16GFP for expression in chloroplasts) is combined with the mTP (for mitochondrial expression) or cTP (for expression in chloroplasts) in a final volume of 100 μl of CPW solution. For experiments using mTP1 (SEQ ID NO: 1), mTP2 (SEQ ID NO: 2), mTP3 (SEQ ID NO: 3), or mTP5 (SEQ ID NO: 5), peptides (scaled up from 100 ng, at four times the concentration needed to cause a DNA shift in the gel mobility shift assay (Table 7)) are combined with the pWMaadA16GFP construct (5 μg). For experiments using the remaining oTPs, peptides (30 μg) are combined with the appropriate dsDNA construct (1.5 μg). The mixture is incubated for 10 minutes at room temperature, then incubated with isolated triticale mesophyll protoplasts (500 μl, 10^6 protoplasts/ml, prepared as described in Example 2) for 1 h in the dark at room temperature. CPW solution (500 μl) is added and the mixture is incubated in the dark for 24 h. The cells are imaged using confocal microscopy, as described in Example 2, using MitoTracker® Orange staining to visualize mitochondria and chlorophyll autofluorescence to visualize chloroplasts.
as §3
Standard curves are generated for both elongation factor 1a (EF1a) (internal control) and green fluorescent protein (GFP) (test) genes. The EF1a curve is generated by pooling 6 μl of each cDNA sample (excluding the negRT control), then carrying out a serial dilution of 0.5 for 5 more dilutions. […]
as §4

MKNPPSSFASGFGIR (listed as Oryza sativa) [cTP3]
GFP expression by proplastids confirmed by qRT-PCR [1]: GFP is expressed
GFP expression by chloroplasts confirmed by qRT-PCR [2]: GFP is expressed
